In US11377441B2, “Covalent inhibitors of KRAS” (Araxes Pharma LLC, priority 2017, dated 2022) one finds Binding % data, which are given here for 17 compounds.

For the assay, the target named is T1, KRAS G12C 1-169, his-tagged protein, GDP-loaded (Homo sapiens, UniProt P01116, G12C).
T1 construct: KRAS G12C 1-169, his-tagged protein, GDP-loaded
The assay is described as follows: Biochemical assay: covalent modification of KRAS G12C measured by mass spectrometry (RapidFire/TOF or Q-Exactive). The class given is binding. Conditions: covalent binding to (modification of) KRAS G12C after a ten minute incubation period. The method, boiled down: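 GDP-loaded KRAS G12C 1-169 (his-tagged) at 2 μM or 0.5 μM in 20 mM Hepes, 150 mM NaCl, 1 mM MgCl2, incubated with compound at 100, 30 or 10 μM at room temperature for 10 min, 30 min, 2 h or 24 h, then quenched with formic acid. Intact-protein LC-MS, deconvolved; percent modification from modified versus unmodified protein.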

In the case of `C=CC(=O)N1C[C@H](C)N(c2nc(N3CC(NC)C3)nc3c(F)c(-c4c(C)ccc5cnn(C)c45)c(Cl)cc23)C[C@H]1C` (atropisomer, axis not shown) [Compound 206, 1-((2R,5S)-4-((R)-6-chloro-7-(1,6-dimethyl-1H-indazol-7-yl)-8-fluoro-2-(3-(methylamino)azetidin-1-yl)quinazolin-4-yl)-2,5-dimethylpiperazin-1-yl)prop-2-en-1-one], the Binding % result is given as “+++ (+++ indicates binding activity greater than 80%)”.
For the compound `C=CC(=O)N1C[C@H](C)N(c2nc(N3CC(NC)C3)nc3c(F)c(-c4c(C)ccc5cnn(C6CC6)c45)c(Cl)cc23)C[C@H]1C` (atropisomer, axis not shown) [Compound 207, 1-((2R,5S)-4-((S)-6-chloro-7-(1-cyclopropyl-6-methyl-1H-indazol-7-yl)-8-fluoro-2-(3-(methylamino)azetidin-1-yl)quinazolin-4-yl)-2,5-dimethylpiperazin-1-yl)prop-2-en-1-one], the Binding % entry was “+ (+ indicates binding activity greater than 0% and up to 50%)”.
Take `C=CC(=O)N1C[C@H](C)N(c2nc(N3CC(NC)C3)nc3c(F)c(-c4c(C)ccc5cnn(C6CC6)c45)c(Cl)cc23)C[C@H]1C` (atropisomer, axis not shown) [Compound 208, 1-((2R,5S)-4-((R)-6-chloro-7-(1-cyclopropyl-6-methyl-1H-indazol-7-yl)-8-fluoro-2-(3-(methylamino)azetidin-1-yl)quinazolin-4-yl)-2,5-dimethylpiperazin-1-yl)prop-2-en-1-one]: the Binding % result is recorded as “+++ (+++ indicates binding activity greater than 80%)”.
On to `C=CC(=O)N1C[C@H](C)N(c2nc(N3CC(NC)C3)nc3c(F)c(-c4c(C)ccc5[nH]nc(C6CC6)c45)c(Cl)cc23)C[C@H]1C` (atropisomer, axis not shown) [Compound 210, 1-((2R,5S)-4-((S)-6-chloro-7-(3-cyclopropyl-5-methyl-1H-indazol-4-yl)-8-fluoro-2-(3-(methylamino)azetidin-1-yl)quinazolin-4-yl)-2,5-dimethylpiperazin-1-yl)prop-2-en-1-one], for which the Binding % entry was “+ (+ indicates binding activity greater than 0% and up to 50%)”.
In the case of `[2H]C([2H])([2H])N(C1CN(c2nc(N3C[C@@H](C)N(C(=O)C=C)C[C@@H]3C)c3cc(Cl)c(-c4c(C)ccc5cnn(C)c45)c(F)c3n2)C1)C([2H])([2H])[2H]` (atropisomer, axis not shown) [Compound 211, 1-((2R,5S)-4-((S)-6-chloro-7-(1,6-dimethyl-1H-indazol-7-yl)-2-(3-(di-perdeuteromethylamino)azetidin-1-yl)-8-fluoroquinazolin-4-yl)-2,5-dimethylpiperazin-1-yl)prop-2-en-1-one] it was “+ (+ indicates binding activity greater than 0% and up to 50%)”.
`[2H]C([2H])([2H])N(C1CN(c2nc(N3C[C@@H](C)N(C(=O)C=C)C[C@@H]3C)c3cc(Cl)c(-c4c(C)ccc5cnn(C)c45)c(F)c3n2)C1)C([2H])([2H])[2H]` (atropisomer, axis not shown) [Compound 212, 1-((2R,5S)-4-((R)-6-chloro-7-(1,6-dimethyl-1H-indazol-7-yl)-2-(3-(di-perdeuteromethylamino)azetidin-1-yl)-8-fluoroquinazolin-4-yl)-2,5-dimethylpiperazin-1-yl)prop-2-en-1-one]: the Binding % result is “+++ (+++ indicates binding activity greater than 80%)”.
In the case of `C=CC(=O)N1C[C@H](C)N(c2nc(N3CC(N(C)C)C3)nc3c(F)c(-c4ccc(F)c5cnn(C6CC6)c45)c(Cl)cc23)C[C@H]1C` (atropisomer, axis not shown) [Compound 217, 1-((2R,5S)-4-((S)-6-chloro-7-(1-cyclopropyl-4-fluoro-1H-indazol-7-yl)-2-(3-(dimethylamino)azetidin-1-yl)-8-fluoroquinazolin-4-yl)-2,5-dimethylpiperazin-1-yl)prop-2-en-1-one] it was “+ (+ indicates binding activity greater than 0% and up to 50%)”.
As to `C=CC(=O)N1C[C@H](C)N(c2nc(N3CC(N(C)C)C3)nc3c(F)c(-c4ccc(F)c5cnn(C6CC6)c45)c(Cl)cc23)C[C@H]1C` (atropisomer, axis not shown) [Compound 218, 1-((2R,5S)-4-((R)-6-chloro-7-(1-cyclopropyl-4-fluoro-1H-indazol-7-yl)-2-(3-(dimethylamino)azetidin-1-yl)-8-fluoroquinazolin-4-yl)-2,5-dimethylpiperazin-1-yl)prop-2-en-1-one], the Binding % entry is reported as “+++ (+++ indicates binding activity greater than 80%)”.
In the case of `C=CC(=O)N1C[C@H](C)N(c2nc(N3CC(NC)C3)nc3c(F)c(-c4c(C)ccc5[nH]nc(C)c45)c(Cl)cc23)C[C@H]1C` (atropisomer, axis not shown) [Compound 219, 1-((2R,5S)-4-((S)-6-chloro-7-(3,5-dimethyl-1H-indazol-4-yl)-8-fluoro-2-(3-(methylamino)azetidin-1-yl)quinazolin-4-yl)-2,5-dimethylpiperazin-1-yl)prop-2-en-1-one] it was “+ (+ indicates binding activity greater than 0% and up to 50%)”.
`C=CC(=O)N1C[C@H](C)N(c2nc(N3CC(NC)C3)nc3c(F)c(-c4c(C)ccc5[nH]nc(C)c45)c(Cl)cc23)C[C@H]1C` (atropisomer, axis not shown) [Compound 220, 1-((2R,5S)-4-((R)-6-chloro-7-(3,5-dimethyl-1H-indazol-4-yl)-8-fluoro-2-(3-(methylamino)azetidin-1-yl)quinazolin-4-yl)-2,5-dimethylpiperazin-1-yl)prop-2-en-1-one]: the Binding % entry is given as “+++ (+++ indicates binding activity greater than 80%)”.
For `[2H]C([2H])([2H])N(C1CN(c2nc(N3C[C@@H](C)N(C(=O)C=C)C[C@@H]3C)c3cc(Cl)c(-c4c(C)ccc5[nH]nc(C)c45)c(F)c3n2)C1)C([2H])([2H])[2H]` (atropisomer, axis not shown) [Compound 221, 1-((2R,5S)-4-((R)-6-chloro-7-(3,5-dimethyl-1H-indazol-4-yl)-2-(3-(di-perdeuteromethylamino)azetidin-1-yl)-8-fluoroquinazolin-4-yl)-2,5-dimethylpiperazin-1-yl)prop-2-en-1-one], the Binding % result is “+++ (+++ indicates binding activity greater than 80%)”.
For the compound `[2H]C([2H])([2H])N(C1CN(c2nc(N3C[C@@H](C)N(C(=O)C=C)C[C@@H]3C)c3cc(Cl)c(-c4c(C)ccc5[nH]nc(C)c45)c(F)c3n2)C1)C([2H])([2H])[2H]` (atropisomer, axis not shown) [Compound 222, 1-((2R,5S)-4-((S)-6-chloro-7-(3,5-dimethyl-1H-indazol-4-yl)-2-(3-(di-perdeuteromethylamino)azetidin-1-yl)-8-fluoroquinazolin-4-yl)-2,5-dimethylpiperazin-1-yl)prop-2-en-1-one], the Binding % result is “+ (+ indicates binding activity greater than 0% and up to 50%)”.
As for `[2H]C([2H])([2H])N(C1CN(c2nc(N3C[C@@H](C)N(C(=O)C=C)C[C@@H]3C)c3cc(Cl)c(-c4c(C)ccc5[nH]nc(C6CC6)c45)c(F)c3n2)C1)C([2H])([2H])[2H]` (atropisomer, axis not shown) [Compound 223, 1-((2R,5S)-4-((S)-6-chloro-7-(3-cyclopropyl-5-methyl-1H-indazol-4-yl)-2-(3-(di-perdeuteromethylamino)azetidin-1-yl)-8-fluoroquinazolin-4-yl)-2,5-dimethylpiperazin-1-yl)prop-2-en-1-one], the Binding % entry is “+ (+ indicates binding activity greater than 0% and up to 50%)”.
Under `[2H]C([2H])([2H])N(C1CN(c2nc(N3C[C@@H](C)N(C(=O)C=C)C[C@@H]3C)c3cc(Cl)c(-c4c(C)ccc5[nH]nc(C6CC6)c45)c(F)c3n2)C1)C([2H])([2H])[2H]` (atropisomer, axis not shown) [Compound 224, 1-((2R,5S)-4-((R)-6-chloro-7-(3-cyclopropyl-5-methyl-1H-indazol-4-yl)-2-(3-(di-perdeuteromethylamino)azetidin-1-yl)-8-fluoroquinazolin-4-yl)-2,5-dimethylpiperazin-1-yl)prop-2-en-1-one] stands “+ (+ indicates binding activity greater than 0% and up to 50%)”.
Under `C=CC(=O)N1C[C@H](C)N(c2nc(OC[C@@H]3CCCN3C)nc3c(F)c(-c4c(C)ccc5[nH]nc(C6CC6)c45)c(Cl)cc23)C[C@H]1C` (atropisomer, axis not shown) [Compound 227, 1-((2R,5S)-4-((S)-6-chloro-7-(3-cyclopropyl-5-methyl-1H-indazol-4-yl)-8-fluoro-2-(((S)-1-methylpyrrolidin-2-yl)methoxy)quinazolin-4-yl)-2,5-dimethylpiperazin-1-yl)prop-2-en-1-one] stands “+ (+ indicates binding activity greater than 0% and up to 50%)”.
In the case of `C=CC(=O)N1C[C@H](C)N(c2nc(OC[C@@H]3CCCN3C)nc3c(F)c(-c4c(C)ccc5[nH]nc(C6CC6)c45)c(Cl)cc23)C[C@H]1C` (atropisomer, axis not shown) [Compound 228, 1-((2R,5S)-4-((R)-6-chloro-7-(3-cyclopropyl-5-methyl-1H-indazol-4-yl)-8-fluoro-2-(((S)-1-methylpyrrolidin-2-yl)methoxy)quinazolin-4-yl)-2,5-dimethylpiperazin-1-yl)prop-2-en-1-one] it was “+++ (+++ indicates binding activity greater than 80%)”; in that of `C=CC(=O)N1C[C@H](C)N(c2nc(OC[C@@H]3CCCN3C)nc3c(F)c(-c4c(C)ccc5cnn(C)c45)c(Cl)cc23)C[C@H]1C` (atropisomer, axis not shown) [Compound 234, 1-((2R,5S)-4-((S)-6-chloro-7-(1,6-dimethyl-1H-indazol-7-yl)-8-fluoro-2-(((S)-1-methylpyrrolidin-2-yl)methoxy)quinazolin-4-yl)-2,5-dimethylpiperazin-1-yl)prop-2-en-1-one], “++ (++ indicates binding activity from 50 to 80%)”.
